Assays:
[1] = target: Human immunodeficiency virus type 1 protease (Human immunodeficiency virus 1, UniProt Q72874, I54M); assay: Inhibition of HIV-1 protease I54M mutant using Abz-Thr-Ile-Nle-p-nitro-Phe-Gln-Arg-NH2 as substrate incubated for 5 mins prior to substrate addition measured for 5 mins by fluorescence assay
[2] = target: Human immunodeficiency virus type 1 protease (Human immunodeficiency virus 1, UniProt Q72874, I50V); assay: Inhibition of HIV-1 protease I50V mutant using Abz-Thr-Ile-Nle-p-nitro-Phe-Gln-Arg-NH2 as substrate incubated for 5 mins prior to substrate addition measured for 5 mins by fluorescence assay
[3] = target: Human immunodeficiency virus type 1 protease (Human immunodeficiency virus 1, UniProt Q72874, D30N); assay: Inhibition of HIV-1 protease D30N mutant using Abz-Thr-Ile-Nle-p-nitro-Phe-Gln-Arg-NH2 as substrate incubated for 5 mins prior to substrate addition measured for 5 mins by fluorescence assay
[4] = target: Human immunodeficiency virus type 1 protease (Human immunodeficiency virus 1, UniProt Q72874, R8Q); assay: Inhibition of HIV-1 protease R8Q mutant using Abz-Thr-Ile-Nle-p-nitro-Phe-Gln-Arg-NH2 as substrate incubated for 5 mins prior to substrate addition measured for 5 mins by fluorescence assay
Protease = Protease (Human immunodeficiency virus 1, UniProt Q9YQ12); assay: Inhibition of HIV-1 wildtype protease using Abz-Thr-Ile-Nle-p-nitro-Phe-Gln-Arg-NH2 as substrate incubated for 5 mins prior to substrate addition measured for 5 mins by fluorescence assay
Chain of Protease (Q9YQ12 whole entry): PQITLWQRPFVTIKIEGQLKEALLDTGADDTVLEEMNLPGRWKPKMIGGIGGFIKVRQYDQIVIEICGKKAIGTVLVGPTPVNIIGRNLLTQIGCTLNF

[5] = tested on: Human immunodeficiency virus 1; assay: Ratio of Ki for HIV-1 protease V82A mutant to Ki for HIV-1 wildtype protease
[6] = tested on: Human immunodeficiency virus 1; assay: Ratio of Ki for HIV-1protease I54M mutant to Ki for HIV-1 wildtype protease
[7] = tested on: Human immunodeficiency virus 1; assay: Ratio of Ki for HIV-1 protease D30N mutant to Ki for HIV-1 wildtype protease
[8] = tested on: Human immunodeficiency virus 1; assay: Ratio of Ki for HIV-1 protease I50V mutant to Ki for HIV-1 wildtype protease
[9] = target: Human immunodeficiency virus type 1 protease (Human immunodeficiency virus 1, UniProt Q72874, V82A); assay: Inhibition of HIV-1 protease V82A mutant using Abz-Thr-Ile-Nle-p-nitro-Phe-Gln-Arg-NH2 as substrate incubated for 5 mins prior to substrate addition measured for 5 mins by fluorescence assay
[10] = tested on: Human immunodeficiency virus 1; assay: Ratio of Ki for HIV-1 protease R8Q mutant to Ki for HIV-1 wildtype protease

Which Ki [1] does the source give for `COc1ccc(S(=O)(=O)N(CC(C)C)C[C@@H](O)[C@H](Cc2ccccc2)NC(=O)O[C@H]2CO[C@H]3O[C@@H]4OCC[C@@H]4[C@H]32)cc1` here?
The Ki was 3.5 nM.

What about the Ki [2] of the same molecule?
The Ki was 30.9 nM.

And the Ki [3]?
The Ki was 8.9 nM.

And the Ki [4]?
The Ki was 1.2 nM.

And the Ki (Protease)?
Its Ki is 0.5 nM.

And the Ratio Ki [5]?
Its Ratio Ki is 6.

And the Ratio Ki [6]?
The Ratio Ki was 7.

And the Ratio Ki [7]?
Its Ratio Ki is 18.

And the Ratio Ki [8]?
Its Ratio Ki is 60.

And the Ki [9]?
The Ki was 3.2 nM.

And the Ratio Ki [10]?
Its Ratio Ki is 2.

— ChEMBL document CHEMBL2311291, “Novel P2 tris-tetrahydrofuran group in antiviral compound 1 (GRL-0519) fills the S2 binding pocket of selected mutants of HIV-1 protease” (J Med Chem, 2013)
